Assay results from patent US4803221A, “Anthracene derivatives” (priority 1987, dated 1989).
Where a name gives a salt, the structure may show the parent alone.

What was measured:
Herpes simplex 1/vero = Herpes simplex 1/vero plaque inhibition screen; assay type: cell-based; conditions: for Zone of Inhibition: plaque inhibition screen
Text: The column headings labeled Score, Toxicity, and Zone of Inhibition refer to the plaque inhibition screen while the IC50 heading to the plaque reduction screen.

[1] = system: lymphocytic leukemia P388/0; assay: Lymphocytic Leukemia P388/0 Test; assay type: in vivo, mouse (CD2-F1); design: LD20: unit: mg/kg; conditions: ip days 1, 5, 9; for LD20: doses on a mg/kg basis; for T/C × 100% (Excluding 30 Day Survivors): median survival time treated/control, at the optimal dose of the compound (Table I), active if ≥120%
Text: (§1) Methods for evaluating the antitumor activity of these compounds are essentially those used in the Tumor Panel by the Developmental Therapeutics Program, Division of Cancer Treatment, National Cancer Institute, A. Goldin, et al., Methods in Cancer Research, Vol. XVI, p.165, Academic Press (1979). Some modifications, in dose level and schedule have been made to increase the testing efficiency.
(§2) CD2-F1 mice, of the same sex, weighing 20±3 g are used for this test. Control and test animals are injected intraperitoneally with a suspension of ~10^6 viable P388/0 tumor cells on day 0. In each test, several dose levels which bracket the LD20 of the compound are evaluated; each dose level group contains six animals. The test compounds are prepared either in physiologic saline containing 0.05% Tween 80 or distilled water containing 5% dextrose and are administered intraperitoneally on days 1, 5, and 9 relative to tumor implant. Doses are on a mg/kg basis according to individual animals' body weights. The day of death for each animal is recorded, the median identified for each group and the ratios of median survival time for treated (T)/control (C) Groups are calculated. The criterion for activity is T/C×100≥120%.

[2] = Lymphocytic Leukemia P388/0 Test; assay type: in vivo, mouse (CD2-F1); design: LD20: unit: mg/kg; conditions: mouse, in vivo; ip days 1, 5, 9; doses on a mg/kg basis; read-out: highest nontoxic dose where the LD20 was not determined (values in parentheses in LD20 column)
Text: as §1, §2

Compound | Toxicity (Herpes simplex 1/vero) | LD20 [1] | T/C × 100% (Excluding 30 Day Survivors) [1] | MTD [2] [mg/kg] | Zone of Inhibition (Herpes simplex 1/vero)
2-(((2-Ethyl-9-anthracenyl)methyl)amino)-2-methyl-1,3-propanediol and 2-(((3-ethyl-9-anthracenyl)methyl)amino)-2-methyl-1,3-propanediol hydrochloride.1/4H2 O [Example 31C] | Y |  |  |  | 
C[C@H](O)[C@@](C)(CO)NCc1c2ccccc2cc2ccccc12 (relative stereo) [Example 30G, (+-)(2R*,3S*)-2-((9-Anthracenylmethyl)amino)-2-methyl-1,3-butanediol hydrochloride 1/4H2 O] |  | 180 | +136% |  | 
CC(CO)(CO)NCc1c2ccccc2c(CCCl)c2ccccc12.Cl [Example 4B, 2-(((10-(2-chloroethyl)-9-anthracenyl)methyl)amino)-2-methyl-1,3-propanediol hydrochloride] |  |  | +225% | 300 | 
CC(CO)(CO)NCc1c2ccccc2c(Cl)c2c(Cl)cccc12.Cl [Example 5C, 2-(((4,10-dichloro-9-anthracenyl)methyl)amino)-2-methyl-1,3-propanediol hydrochloride] |  |  | +204% | 300 | 
CC(CO)(CO)NCc1c2ccccc2c(CO)c2ccccc12 [Example 6, 2-(((10-Hydroxymethyl-9-anthracenyl)methyl)amino)-2-methyl-1,3-propanediol hydrochloride 1/4H2 O] |  | 180 | +170% |  | 
CC(CO)(CO)NCc1c2ccccc2c(Br)c2ccccc12.Cl [Example 8B, 2-(((10-Bromo-9-anthracenyl)methyl)amino)-2-methyl-1,3-propanediol hydrochloride] |  |  | +200% | 450 | 
C[S+]([O-])c1c2ccccc2c(CNC(C)(CO)CO)c2ccccc12.Cl (stereo not shown) [Example 12B, 2-Methyl-2-(((10-methylsulfinyl-9-anthracenyl)methyl)amino)-1,3-propanediol hydrochloride] |  | 55 | +220% |  | 
CC(CO)(CO)NCc1c2ccccc2c(C#N)c2ccccc12.Cl [Example 14B, 10-((1,1-Bis(hydroxymethyl)ethylamino)methyl)-9-anthracenecarbonitrile hydrochloride] |  | 387 | +190% |  | 
CC(CO)(CO)NCc1cccc2cc3ccccc3cc12 [Example 15E, 2-((1-Anthracenylmethyl)amino)-2-methyl-1,3-propanediol hydrochloride] |  | 7 | +204% |  | 
CC(CO)(CO)NCc1cccc2c(Br)c3ccccc3cc12.Cl [Example 16C, 2-(((10-Bromo-1-anthracenyl)methyl)amino)-2-methyl-1,3-propanediol hydrochloride] |  |  | +225% | 300 | 
CC(CO)(CO)NCc1c2ccccc2cc2ccc(Cl)cc12.Cl [Example 17C, 2-(((2-Chloro-9-anthracenyl)methyl)amino)-2-methyl-1,3-propanediol hydrochloride] |  | 150 | +170% |  | 
CC(CO)(CO)NCc1c2ccccc2cc2cc(Cl)ccc12 [Example 18, 2-(((3-Chloro-9-anthracenyl)methyl)amino-2-methyl-1,3-propanediol hydrochloride] |  |  | +181% | 675 | 
CCSc1c2ccccc2c(CNC(C)(CO)CO)c2ccccc12.Cl [Example 19B, 2-(((10-ethylthio-9-anthracenyl)methyl)amino)-2-methyl-1,3-propanediol hydrochloride] |  | 625 | +145% |  | 
CC(CO)(CO)NCc1c2ccccc2c(SCCO)c2ccccc12.Cl [Example 20B, 2-(((10-(2-hydroxyethylthio)-9-anthracenyl)methyl)amino)-2-methyl-1,3-propanediol hydrochloride] |  | 440 | +145% |  | 
Cl.OCC(CO)(CO)NCc1c2ccccc2c(Cl)c2ccccc12 [Example 21, 2-(((10-Chloro-9-anthracenyl)methyl)amino)-2-hydroxymethyl-1,3-propanediol hydrochloride] |  | 440 | +140% |  | 
CC(CO)(CO)NCc1c2ccccc2c(Cl)c2ccc(Cl)cc12.Cl [Example 22C, 2-(((2,10-dichloro-9-anthracenyl)methyl)amino)-2-methyl-1,3-propanediol hydrochloride] |  |  | +200% | 400 | 

Compound | Toxicity (Herpes simplex 1/vero) | LD20 [1] | T/C × 100% (Excluding 30 Day Survivors) [1] | MTD [2] [mg/kg] | Zone of Inhibition (Herpes simplex 1/vero)
CC(CO)(CO)NCc1c2ccccc2c(Cl)c2cc(Cl)ccc12.Cl [Example 23, 2-(((3,10-dichloro-9-anthracenyl)methyl)amino)-2-methyl-1,3-propanediol hydrochloride] |  |  | +210% | 300 | 
CCOc1c2ccccc2c(CNC(C)(CO)CO)c2ccccc12.Cl [Example 24B, 2-(((10-Ethoxy-9-anthracenyl)methyl)amino)-2-methyl-1,3-propanediol hydrochloride] |  | 96 | +218% |  | 
CC(CO)(CO)NCc1c2ccccc2c(S(C)(=O)=O)c2ccccc12.Cl [Example 26B, 2-Methyl-2-(((10-methylsulfonyl-9-anthracenyl)methyl)amino)-1,3-propanediol hydrochloride] |  |  | +228% | 300 | 
COCCOc1c2ccccc2c(CNC(C)(CO)CO)c2ccccc12 [Example 27B, 2-(((10-(2-Methoxyethoxy)-9-anthracenyl)methyl)amino)-2-methyl-1,3-propanediol hydrochloride 1/4H2 O] |  | 180 | +260% |  | 
CC(CO)(CO)NCc1c2ccccc2c(N2CCOCC2)c2ccccc12 [Example 28B, 2-Methyl-2-((((10-N-morpholino)-9-anthracenyl)methyl)amino)-1,3-propanediol methanesulfonate.3/4H2 O] |  | 225 | +235% |  | 
CC(CO)(CO)NCc1c2ccccc2c(-n2ccnc2)c2ccccc12 [Example 29B, 2-(((10-(1H-Imidazol-1-yl)-9-anthracenyl)methyl)amino)-2-methyl-1,3-propanediol hydrochloride 11/10 H2 O] |  | 100 | +235% |  | 32
CCOCC(CO)(CO)NCc1c2ccccc2cc2ccccc12.Cl [Example 32C, 2-((9-Anthracenylmethyl)amino)-2-ethoxymethyl-1,3-propanediol hydrochloride] |  | 625 | +130% |  | 23.2
COCC(C)(CO)NCc1c2ccccc2cc2ccccc12.Cl (stereo not shown) [Example 33D, 2-((9-Anthracenylmethyl)amino)-3-methoxy-2-methyl-1-propanol hydrochloride] |  |  |  |  | 35
CC(C)C(CO)(CO)NCc1c2ccccc2cc2ccccc12 [Example 35C, 2-((9-Anthracenylmethyl)amino)-2-isopropyl-1,3-propanediol methanesulfonate] |  | 450 | +150% |  | 
CC(CO)(CCO)NCc1c2ccccc2cc2ccccc12.CS(=O)(=O)O (stereo not shown) [Example 36G, 2-((9-anthracenylmethyl)amino)-2-methyl-1,4-butanediol methanesulfonate] |  | 120 | +125% |  | 
CC(CO)(CO)NCc1cccc2c(Cl)c3ccccc3cc12 [Example 37E, 2-(((10-Chloro-1-anthracenyl)methyl)amino)-2-methyl-1,3-propanediol methanesulfonate.9/20 H2 O] |  | 140 | +145% |  | 
Cc1cc2c(Cl)c3ccccc3c(CNC(C)(CO)CO)c2cc1C.Cl [Example 40B, 2-(((10-Chloro-2,3-dimethyl-9-anthracenyl)methyl)amino)-2-methyl-1,3-propanediol hydrochloride] |  |  | +205% | 300 | 
CC(CO)(CO)NCc1c2ccccc2c(Cl)c2ccc(C(C)(C)C)cc12.Cl [Example 41C, 2-(((2-tert-butyl-10-chloro-9-anthracenyl)methyl)amino)-2-methyl-1,3-propanediol hydrochloride.1/4H2 O] |  |  | +125% |  | 
CCCCOc1c2ccccc2c(CNC(C)(CO)CO)c2ccccc12.Cl [Example 44F, 2-(((10-Butoxy-9-anthracenyl)methyl)amino)-2-methyl-1,3-propanediol hydrochloride] |  | 120 | +120% |  | 
CCCCc1c2ccccc2c(CNC(C)(CO)CO)c2ccccc12.Cl [Example 45B, 2-(((10-Butyl-9-anthracenyl)methyl)amino)-2-methyl-1,3-propanediol hydrochloride] |  | 212 | +170% |  | 
